Source: patent publication US11672868B2, “Bicyclic peptide ligands specific for MT1-MMP” (priority 2014, dated 2023)
Marks after values point to notes of the source that are not given here. Blank lines part the entries; values can stand above or below the compound they belong to. Numbered stars: 1 amine (or outer) side, 2 acyl side, 3 side chain; on linkers, the order of the positions; unused ones are H or OH. Bridge positions count the residues as written; N and C are the ends. Square brackets hold non-standard residues; d marks the D form. Peptide text beside a SMILES is read from it. * marks the point of attachment. X1 = COc1cc2cc(c1Cl)N(C)C(=O)C[C@H](OC(=O)[C@H](C)N(C)C(=O)CCC(C)(C)SSCCCC(=O)*)[C@]1(C)O[C@H]1[C@H](C)[C@@H]1C[C@@](O)(NC(=O)O1)[C@H](OC)/C=C/C=C(\C)C2; 5FAM = O=C1OC2(c3ccc(O)cc3Oc3cc(O)ccc32)c2ccc(C(=O)*)cc21; 1Nal = N[C@@H](Cc1cccc2ccccc12)C(=O)O; TBMB = c1c(C[*:1])cc(C[*:3])cc1C[*:2]; Tle = CC(C)(C)[C@H](N)C(=O)O; βAla = NCCC(=O)O; Sar = CNCC(=O)O

Tests used:
[1] = target: T1, MT1-MMP hemopexin domain (Mus musculus, UniProt P53690); assay: FP competition, species cross-reactivity (mouse); format: binding; conditions: Table 13
T1 construct: MT1-MMP hemopexin domain derived from other species
From the text: (§1) Here, a pre-formed complex of PEX with the fluorescent PEX-binding tracer is titrated with free, non-fluoresceinated bicyclic peptide. Since all 17-69-based peptides are expected to bind at the same site, the titrant will displace the fluorescent tracer from PEX. Dissociation of the complex can be measured quantitatively, and the Kd of the competitor (titrant) to the target protein determined. The advantage of the competition method is that the affinities of non-fluoresceinated bicyclic peptides can be determined accurately and rapidly.
(§2) Subsequently, the non-fluorescent competitor bicyclic peptide (usually just the bicycle core sequence) is titrated, such that it displaces the fluorescent tracer from the target protein. The displacement of the tracer is measured and associated with a drop in fluorescence polarisation. The drop in fluorescence polarisation is proportional to the fraction of target protein bound with the non-fluorescent titrant, and thus is a measure of the affinity of titrant to target protein.
(§3) The raw data is fit to the analytical solution of the cubic equation that describes the equilibria between fluorescent tracer, titrant, and binding protein. The fit requires the value of the affinity of fluorescent tracer to the target protein, which can be determined separately by direct binding FP experiments (see previous section). […]

[2] = Plasma stability, quantitative LC-MS; format: in vitro ADME; conditions: rat, incubation up to 24 hrs, 4 μM BDC, read-out: t1/2 (hrs) (rat plasma) (converted)
Description: (§4) The four BDCs were assessed for several in vitro parameters such as retention of potency to the human MT1-MMP hemopexin domain, stability in ex vivo mouse, rat and human plasma, and stability to reducing agents such as dithiothreitol.

[3] = Plasma stability, quantitative LC-MS (Method #2); format: in vitro ADME, human; conditions: quantitative LC-MS, incubation up to 24 hrs, 4 μM BDC; for half-life at 4 μM: human, read-out: t1/2 (hrs) (human plasma) (converted)
Description: […] […] Prior to LC-MS analysis, samples were defrosted, and mixed with 3 volumes (here, 120 μL) of 1:1 acetonitrile/MeOH water. The milky suspensions were centrifuged for 30 min at 13000 rpm, and peptide-containing supernatants were quantitated for doubly/triply charged species and MS/MS fragments thereof using a Waters Xevo TQ-D instrument, while using a plasma extracted standard curve of the same peptides as a reference. The half-life of degradation in plasma was used to assess the comparative stability of the molecules.

[4] = target: MT1-MMP hemopexin domain; assay: FP competition, species cross-reactivity (dog); format: binding; conditions: Table 13
From the text: as §1, §2, §3

[5] = Plasma stability, quantitative LC-MS (Method #2); format: in vitro ADME, mouse; conditions: mouse, quantitative LC-MS, incubation up to 24 hrs, 4 μM BDC, read-out: t1/2 (hrs) (mouse plasma) (converted)
Description: To obtain plasma stability of bicyclic peptides quantitatively, peptide stock solutions (200 μM in DMSO) were mixed with plasma (human or mouse), such that final concentrations were 10 μM. 40 μL samples were taken periodically up to 8 hrs and frozen at −80° C. Prior to LC-MS analysis, samples were defrosted, and mixed with 3 volumes (here, 120 μL) of 1:1 acetonitrile/MeOH water. The milky suspensions were centrifuged for 30 min at 13000 rpm, and peptide-containing supernatants were quantitated for doubly/triply charged species and MS/MS fragments thereof using a Waters Xevo TQ-D instrument, while using a plasma extracted standard curve of the same peptides as a reference. The half-life of degradation in plasma was used to assess the comparative stability of the molecules.

[6] = target: T2, MMP-2 (Homo sapiens, UniProt P08253); assay: FP selectivity against related metalloproteinases; format: binding; conditions: Table 14
T2 sequence (P08253 110-660): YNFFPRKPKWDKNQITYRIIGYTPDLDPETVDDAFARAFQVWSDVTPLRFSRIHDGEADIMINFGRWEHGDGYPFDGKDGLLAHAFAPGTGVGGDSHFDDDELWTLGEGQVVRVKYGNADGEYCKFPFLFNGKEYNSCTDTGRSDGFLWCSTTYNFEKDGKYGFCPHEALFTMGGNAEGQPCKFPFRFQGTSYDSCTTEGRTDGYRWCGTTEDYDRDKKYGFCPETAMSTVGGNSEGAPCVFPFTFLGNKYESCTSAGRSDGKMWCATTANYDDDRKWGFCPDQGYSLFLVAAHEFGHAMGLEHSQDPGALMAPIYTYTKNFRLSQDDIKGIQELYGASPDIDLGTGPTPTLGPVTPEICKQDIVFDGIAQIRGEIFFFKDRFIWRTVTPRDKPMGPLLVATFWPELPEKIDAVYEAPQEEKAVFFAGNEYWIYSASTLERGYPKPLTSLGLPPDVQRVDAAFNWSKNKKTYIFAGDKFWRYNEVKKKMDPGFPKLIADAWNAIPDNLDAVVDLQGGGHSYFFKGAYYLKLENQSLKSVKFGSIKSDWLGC
Description: (§5) The N-terminally fluoresceinated derivative of 17-69-07-N241 (termed 17-69-07-N258, of the sequence: Fluorescein-(bAla)-Sar10-A-(17-69-07) D-Ala1 1Nal4 D-Ala5 tBuGly11) was tested against related human metalloproteinases.

[7] = target: T3, MMP-1 (Homo sapiens, UniProt P03956); assay: FP selectivity against related metalloproteinases; format: binding; conditions: Table 14
T3 sequence (P03956 100-469): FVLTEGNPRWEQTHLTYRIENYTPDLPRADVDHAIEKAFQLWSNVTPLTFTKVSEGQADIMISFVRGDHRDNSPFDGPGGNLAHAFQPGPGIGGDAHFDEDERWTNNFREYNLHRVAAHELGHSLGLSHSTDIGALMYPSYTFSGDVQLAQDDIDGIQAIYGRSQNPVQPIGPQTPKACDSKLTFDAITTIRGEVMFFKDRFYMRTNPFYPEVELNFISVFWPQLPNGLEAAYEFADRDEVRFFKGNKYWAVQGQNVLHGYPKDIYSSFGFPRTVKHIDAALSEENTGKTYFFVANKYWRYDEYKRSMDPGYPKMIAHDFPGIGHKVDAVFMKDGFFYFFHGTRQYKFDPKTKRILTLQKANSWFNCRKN
Description: as §5

[8] = target: MMP-16 (Homo sapiens, UniProt P51512); assay: FP selectivity against related metalloproteinases; format: binding; conditions: Table 14
MMP-16, sequence (P51512 120-607): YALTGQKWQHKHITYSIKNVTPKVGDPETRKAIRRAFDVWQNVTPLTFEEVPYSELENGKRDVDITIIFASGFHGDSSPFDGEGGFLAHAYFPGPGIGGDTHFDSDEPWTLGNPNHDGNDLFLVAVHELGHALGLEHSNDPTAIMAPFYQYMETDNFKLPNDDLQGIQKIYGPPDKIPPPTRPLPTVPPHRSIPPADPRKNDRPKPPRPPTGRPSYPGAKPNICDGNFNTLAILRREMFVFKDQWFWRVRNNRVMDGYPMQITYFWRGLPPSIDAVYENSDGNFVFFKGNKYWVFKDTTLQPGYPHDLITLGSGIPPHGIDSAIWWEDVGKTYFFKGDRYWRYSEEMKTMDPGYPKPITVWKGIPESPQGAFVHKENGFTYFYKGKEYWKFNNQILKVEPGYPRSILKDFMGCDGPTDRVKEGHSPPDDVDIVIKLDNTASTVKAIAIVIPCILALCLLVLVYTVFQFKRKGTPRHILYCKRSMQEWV
Description: as §5

[9] = target: MMP-15 (Homo sapiens, UniProt P51511); assay: FP selectivity against related metalloproteinases; format: binding; conditions: Table 14
MMP-15, sequence (P51511 132-669): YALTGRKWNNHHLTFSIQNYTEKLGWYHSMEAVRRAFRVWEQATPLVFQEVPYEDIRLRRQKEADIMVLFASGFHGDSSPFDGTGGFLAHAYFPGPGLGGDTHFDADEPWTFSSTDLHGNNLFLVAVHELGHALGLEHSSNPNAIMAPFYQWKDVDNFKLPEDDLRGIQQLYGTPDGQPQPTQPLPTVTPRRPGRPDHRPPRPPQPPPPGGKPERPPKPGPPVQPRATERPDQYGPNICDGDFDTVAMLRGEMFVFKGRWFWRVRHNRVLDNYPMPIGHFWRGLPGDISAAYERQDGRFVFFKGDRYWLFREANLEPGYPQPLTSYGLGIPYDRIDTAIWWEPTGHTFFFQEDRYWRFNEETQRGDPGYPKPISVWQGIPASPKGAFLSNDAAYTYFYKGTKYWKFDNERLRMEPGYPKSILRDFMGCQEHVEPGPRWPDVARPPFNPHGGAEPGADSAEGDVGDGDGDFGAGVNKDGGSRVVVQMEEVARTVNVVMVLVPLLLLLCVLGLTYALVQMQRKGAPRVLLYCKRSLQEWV
Description: as §5

[10] = system: human lung squamous cell carcinoma line EBC-1; assay: Efficacy in EBC-1 xenograft mice; format: in vivo, mouse
Description: In vivo efficacy of BT17BDC-17, BT17BDC-18, BT17BDC-19 and BT17BDC-20 All BDCs containing the stabilised bicycle core sequence were tested for their efficacies in in vivo mouse xenograft models, using the human lung squamous cell carcinoma line EBC-1.
The area under the curve (AUC) of tumour volume over time and BDC was taken and plotted against the corresponding dose group (FIG. 13).

[11] = Kellogg et al (2011), cited from earlier work
[12] = Stability to reducing agent dithiothreitol (DTT); format: physicochemical; conditions: Bicycle Drug Conjugates, quantitative LC-MS
Description: as §4

SMILES: C[C@H](NC(=O)CN(C)C(=O)CN(C)C(=O)CN(C)C(=O)CN(C)C(=O)CN(C)C(=O)CN(C)C(=O)CN(C)C(=O)CN(C)C(=O)CN(C)C(=O)CN(C)C(=O)CCN)C(=O)N[C@H]1CSCc2cc3cc(c2)CSC[C@H](NC(=O)[C@@H](C)NC(=O)[C@H](Cc2cccc4ccccc24)NC(=O)[C@H](CCC(=O)O)NC(=O)[C@H](CC(N)=O)NC(=O)[C@@H](C)NC1=O)C(=O)N[C@@H](CCC(=O)O)C(=O)N[C@@H](CC(=O)O)C(=O)N[C@@H](Cc1ccccc1)C(=O)N[C@@H](Cc1ccc(O)cc1)C(=O)N[C@@H](CC(=O)O)C(=O)N[C@@H](C(C)(C)C)C(=O)N[C@H](C(N)=O)CSC3 [17-69-07-N241, bAla-Sar10-A-(17-69-07) D-Ala1 1Nal4 D-Ala5 tBuGly11] (H-[βAla][Sar][Sar][Sar][Sar][Sar][Sar][Sar][Sar][Sar][Sar]AC[dA]NE[1Nal][dA]CEDFYD[Tle]C-NH2; linker 13-19-26 via TBMB; C-terminus assumed)
Kd [1]: 0.63 nM | half-life at 4 μM ([2]; rat plasma (ex vivo)): > 36 h | half-life at 4 μM ([3]; human plasma): > 36 h | Kd [4]: 1.4 nM | half-life at 4 μM ([5]; mouse plasma): > 36 h

Kd [6]: > 1000 nM | Kd [7]: > 1000 nM | Kd [8]: > 1000 nM | Kd [9]: > 1000 nM
SMILES: C[C@H](NC(=O)CN(C)C(=O)CN(C)C(=O)CN(C)C(=O)CN(C)C(=O)CN(C)C(=O)CN(C)C(=O)CN(C)C(=O)CN(C)C(=O)CN(C)C(=O)CN(C)C(=O)CCNC(=O)c1ccc2c(c1)C(=O)OC21c2ccc(O)cc2Oc2cc(O)ccc21)C(=O)N[C@H]1CSCc2cc3cc(c2)CSC[C@H](NC(=O)[C@@H](C)NC(=O)[C@H](Cc2cccc4ccccc24)NC(=O)[C@H](CCC(=O)O)NC(=O)[C@H](CC(N)=O)NC(=O)[C@@H](C)NC1=O)C(=O)N[C@@H](CCC(=O)O)C(=O)N[C@@H](CC(=O)O)C(=O)N[C@@H](Cc1ccccc1)C(=O)N[C@@H](Cc1ccc(O)cc1)C(=O)N[C@@H](CC(=O)O)C(=O)N[C@@H](C(C)(C)C)C(=O)N[C@H](C(N)=O)CSC3 [17-69-07-N258, Fluorescein-(bAla)-Sar10-A-(17-69-07) D-Ala1 1Nal4 D-Ala5 tBuGly11] ({5FAM-βAla}-[Sar][Sar][Sar][Sar][Sar][Sar][Sar][Sar][Sar][Sar]AC[dA]NE[1Nal][dA]CEDFYD[Tle]C-NH2; linker 12-18-25 via TBMB)

SMILES: COc1cc2cc(c1Cl)N(C)C(=O)C[C@H](OC(=O)[C@H](C)N(C)C(=O)CCC(C)(C)SSCCCC(=O)NCCC(=O)N(C)CC(=O)N(C)CC(=O)N(C)CC(=O)N(C)CC(=O)N(C)CC(=O)N(C)CC(=O)N(C)CC(=O)N(C)CC(=O)N(C)CC(=O)N(C)CC(=O)N[C@@H](C)C(=O)N[C@H]1CSCc3cc4cc(c3)CSC[C@H](NC(=O)[C@@H](C)NC(=O)[C@H](Cc3cccc5ccccc35)NC(=O)[C@H](CCC(=O)O)NC(=O)[C@H](CC(N)=O)NC(=O)[C@@H](C)NC1=O)C(=O)N[C@@H](CCC(=O)O)C(=O)N[C@@H](CC(=O)O)C(=O)N[C@@H](Cc1ccccc1)C(=O)N[C@@H](Cc1ccc(O)cc1)C(=O)N[C@@H](CC(=O)O)C(=O)N[C@@H](C(C)(C)C)C(=O)N[C@H](C(N)=O)CSC4)[C@]1(C)O[C@H]1[C@H](C)[C@@H]1C[C@@](O)(NC(=O)O1)[C@H](OC)/C=C/C=C(\C)C2 [BT17BDC-19] ({X1-βAla}-[Sar][Sar][Sar][Sar][Sar][Sar][Sar][Sar][Sar][Sar]AC[dA]NE[1Nal][dA]CEDFYD[Tle]C-NH2; linker 12-18-25 via TBMB)
efficacy in EBC-1 xenograft ([10]; EBC-1 xenograft): efficacious | tolerability / body weight ([10]; EBC-1 xenograft): well tolerated at efficacious doses | ED50, effective dose to achieve 50% tumour AUC reduction ([10]; mouse bearing EBC-1 tumours, ± 95% confidence limit): 3.1 ± 1.6^b mg/kg | fold reduction in sensitivity to a reducing agent such as dithiothreitol ([11]; in the antibody drug conjugate context, compared to the non-hindered disulphide): 14 fold | Relative Stability to DTT (ADC) ([11]; values relate to antibody drug conjugates containing the same disulphide linker): 14 | Relative Stability to DTT (BDC) [12]: 30 | half-life at 4 μM ([2]; plasma): > 36 h | half-life at 4 μM ([3]; plasma): > 14 h | t1/2 (hrs) (human plasma) [3]: 23.5 ± 4.1 h | half-life at 4 μM ([5]; plasma): > 36 h
